Data set [1] concerns hyperhidrosis. The conditions noted are these: in vivo; cited from earlier work.
The test system of data set [2] is hyperhidrosis. The conditions noted are these: human, in vivo.
In data set [3] the test system is gustatory sweating associated with diabetic autonomic neuropathy. The conditions noted are these: in vivo; cited from earlier work.
In data set [4] the test system is hyperhidrosis. The conditions noted are these: in vivo; cited from earlier work. This is another data set of the same source.
For data set [5] the following is noted: in vivo; cited from earlier work.

As for botulinum A neurotoxin [BOTOX], in data set [1], the benefit in hyperhidrosis entry is given as “statistically significant benefit” and the duration of effect entry is “several months”.
Take `C[N+]1(C)CCC(OC(=O)C(O)(c2ccccc2)C2CCCC2)C1.[Br-]` (centres unmarked) [glycopyrrolate]: in data set [2], the “perspiration associated with the hyperhidrosis” value is on record as “reduction in the perspiration” and the “unwanted perspiration at the location where the glycopyrrolate is applied” value is “reduces the unwanted perspiration”. The gustatory sweating entry in data set [3] is “prevented the gustatory sweating”. In addition, in data set [4], the “duration of reduction of the hyperhidrosis” value is listed as “up to 4 weeks” and the side effects entry was “abdominal discomfort”. Also, the side effects result in data set [5] is given as “few side effects”.

These data come from patent US6433003B1 (priority 1999, dated 2002).
